Source: PubChem BioAssay AID192 (DTP/NCI, 2004)
Values joined by “and” are separate entries in the source; they are usually repeats but may differ in a detail not shown here. Equal entries are not always repeated. Toxic doses and inconclusive results are not listed.

Test system: BDF1 mice, B16 melanoma ip, median survival T/C
Assay: NCI In Vivo Anticancer Drug Screen. Data for tumor model B16 Melanoma (intraperitoneal) in B6D2F1 (BDF1) mice
Settings: endpoint: median survival time, higher = longer survival
Outline: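 Compounds were tested in mice carrying transplantable tumors. Survival or tumor size was recorded, and each value is the treated-group measurement (T) divided by that of the vehicle-treated control group (C).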

[1] = dose: 37.5 mg/kg/injection, schedule: Q01DX009 (ip), vehicle: saline
[2] = dose: 100.0 mg/kg/injection, schedule: Q01DX009 (ip), vehicle: saline with Tween-80
[3] = dose: 50.0 mg/kg/injection, schedule: Q01DX009 (ip), vehicle: saline with Tween-80
[4] = dose: 25.0 mg/kg/injection, schedule: Q01DX009 (ip), vehicle: Klucel (hydroxypropylcellulose) (HPC)
[5] = dose: 50.0 mg/kg/injection, schedule: Q01DX009 (ip), vehicle: Klucel (hydroxypropylcellulose) (HPC)
[6] = dose: 100.0 mg/kg/injection, schedule: Q01DX009 (ip), vehicle: Klucel (hydroxypropylcellulose) (HPC)
[7] = dose: 200.0 mg/kg/injection, schedule: Q01DX009 (ip), vehicle: Klucel (hydroxypropylcellulose) (HPC)
[8] = dose: 400.0 mg/kg/injection, schedule: Q01DX009 (ip), vehicle: Klucel (hydroxypropylcellulose) (HPC)
[9] = dose: 1.56 mg/kg/injection, schedule: Q01DX009 (ip), vehicle: Klucel (hydroxypropylcellulose) (HPC)
[10] = dose: 3.12 mg/kg/injection, schedule: Q01DX009 (ip), vehicle: Klucel (hydroxypropylcellulose) (HPC)
[11] = dose: 6.25 mg/kg/injection, schedule: Q01DX009 (ip), vehicle: Klucel (hydroxypropylcellulose) (HPC)
[12] = dose: 25.0 mg/kg/injection, schedule: Q01DX009 (ip), vehicle: saline
[13] = dose: 1.25 mg/kg/injection, schedule: Q01DX009 (ip), vehicle: saline with Tween-80
[14] = dose: 2.5 mg/kg/injection, schedule: Q01DX009 (ip), vehicle: saline with Tween-80
[15] = dose: 5.0 mg/kg/injection, schedule: Q01DX009 (ip), vehicle: saline with Tween-80
[16] = dose: 10.0 mg/kg/injection, schedule: Q01DX009 (ip), vehicle: saline with Tween-80
[17] = dose: 50.0 mg/kg/injection, schedule: Q01DX009 (ip), vehicle: saline
[18] = dose: 50.0 mg/kg/injection, schedule: Q04DX003 (ip), vehicle: saline with Tween-80

With `COC1C(O)CC(OC2C(C)OC(Oc3cc(O)c4c(O)c5c(cc4c3)C[C@@H]([C@H](OC)C(=O)[C@@H](O)[C@@H](C)O)[C@H](OC3CC(OC4CC(OC6CC(C)(O)C(O)C(C)O6)C(O)C(C)O4)C(O)C(C)O3)C5=O)CC2OC(C)=O)OC1C` (some centres not stated) the T/C [1] was 110 % of control, the T/C (dose: 75.0 mg/kg/injection, schedule: Q01DX009 (ip), vehicle: saline) was 113 % of control and the T/C (dose: 150.0 mg/kg/injection, schedule: Q01DX009 (ip), vehicle: saline) was 111 % of control.

`C=C1C(=O)OC2C1CCC(=C)C1CC(O)C(=C)C12` (configuration not stated) was tested, and the T/C (dose: 67.0 mg/kg/injection, schedule: Q01DX009 (ip), vehicle: saline with Tween-80) was 87 % of control and the T/C [2] was 87 % of control.

With `CC(C)(C)OC(=O)NCCCCC(NC(=O)OCc1ccccc1)C(=O)ON1C(=O)CCC1=O` (configuration not stated) the T/C [3] was 98 % of control, the T/C [2] was 92 % of control and the T/C (dose: 200.0 mg/kg/injection, schedule: Q01DX009 (ip), vehicle: saline with Tween-80) was 87 % of control.

For `COc1ccc(CCN2CC(=O)NC(=O)C2)cc1OC`, the T/C [4] was 97 % of control, the T/C [5] was 91 % of control and the T/C [6] was 88 % of control. For the same molecule, the T/C [7] was 94 % of control and the T/C [8] was 91 % of control.

With `O=C1/C(=N/O)CCc2ccccc21` the T/C [5] was 91 % of control and the T/C [6] was 100 % of control.

`[Cu+2].[NH-]C(CC(=O)O)C(=O)O.[NH-]C(CC(=O)O)C(=O)O` (configuration not stated) was tested, and the T/C (dose: 4.68 mg/kg/injection, schedule: Q01DX009 (ip), vehicle: saline) was 98 % of control and the T/C (dose: 9.37 mg/kg/injection, schedule: Q01DX009 (ip), vehicle: saline) was 101 % of control.

In the case of `O=C(CC(O)(C(F)(F)F)C(F)(F)F)CC(O)(C(F)(F)F)C(F)(F)F`, the T/C (dose: 1.25 mg/kg/injection, schedule: Q04DX003 (ip), vehicle: saline) is reported as 116 % of control and the T/C (dose: 2.5 mg/kg/injection, schedule: Q04DX003 (ip), vehicle: saline) is reported as 122 % of control and 116 % of control.

`c1ccc2c(NCCCCCCCCNc3c4ccccc4nc4ccccc34)c3ccccc3nc2c1` was tested, and the T/C (dose: 5.0 mg/kg/injection, schedule: Q01DX009 (ip), vehicle: Klucel (hydroxypropylcellulose) (HPC)) was 151 % of control and 159 % of control, the T/C (dose: 10.0 mg/kg/injection, schedule: Q01DX009 (ip), vehicle: Klucel (hydroxypropylcellulose) (HPC)) was 164 % of control and the T/C (dose: 20.0 mg/kg/injection, schedule: Q01DX009 (ip), vehicle: Klucel (hydroxypropylcellulose) (HPC)) was 156 % of control.

In the case of `O=NN(CCCl)C(=O)Nc1ccc2c3c(cccc13)-c1ccccc1-2`, the T/C [9] is reported as 111 % of control, the T/C [10] is reported as 124 % of control and the T/C [4] is reported as 158 % of control and 175 % of control. For the same molecule, the T/C [5] was 170 % of control, the T/C [6] was 150 % of control and the T/C [7] was 150 % of control.

For `CCOC(=O)C(=O)C(C#N)C(=O)OCC` (configuration not stated), the T/C [10] was 88 % of control, the T/C [11] was 109 % of control and the T/C (dose: 8.2 mg/kg/injection, schedule: Q01DX009 (ip), vehicle: Klucel (hydroxypropylcellulose) (HPC)) was 100 % of control. The T/C (dose: 12.5 mg/kg/injection, schedule: Q01DX009 (ip), vehicle: Klucel (hydroxypropylcellulose) (HPC)) was 96 % of control and 100 % of control and the T/C (dose: 18.0 mg/kg/injection, schedule: Q01DX009 (ip), vehicle: Klucel (hydroxypropylcellulose) (HPC)) was 96 % of control and 105 % of control.

For `C=C1C(=O)OC2CC(C)C3C4OC4C(O)C3(C)C(O)C12` (configuration not stated), the T/C (dose: 9.38 mg/kg/injection, schedule: Q01DX009 (ip), vehicle: saline) was 94 % of control, the T/C (dose: 18.75 mg/kg/injection, schedule: Q01DX009 (ip), vehicle: saline) was 94 % of control and the T/C [1] was 103 % of control.

`O=C1NC(=O)C([N+](=O)[O-])=C(O)C1=O` was tested, and the T/C (dose: 75.0 mg/kg/injection, schedule: Q04DX003 (ip), vehicle: other) was 105 % of control and the T/C (dose: 150.0 mg/kg/injection, schedule: Q04DX003 (ip), vehicle: other) was 95 % of control.

In the case of `Clc1ccccc1C=Nc1ccc2c(c1)Cc1ccccc1-2`, the T/C [6] is reported as 96 % of control, the T/C [7] is reported as 96 % of control and the T/C [8] is reported as 87 % of control.

`CN(CCCOS(C)(=O)=O)CCCOS(C)(=O)=O` was tested, and the T/C (dose: 6.25 mg/kg/injection, schedule: Q01DX009 (ip), vehicle: saline) was 115 % of control, the T/C (dose: 10.0 mg/kg/injection, schedule: Q01DX009 (ip), vehicle: saline) was 185 % of control and the T/C (dose: 20.0 mg/kg/injection, schedule: Q01DX009 (ip), vehicle: saline) was 150 % of control. For the same molecule, the T/C [12] was 181 % of control and the T/C (dose: 40.0 mg/kg/injection, schedule: Q01DX009 (ip), vehicle: saline) was 285 % of control.

For `CC12CCC(O)CC1CCC1C2CCC2(C)C(c3ccc(=O)oc3)CC3OC312` (configuration not stated), the T/C (dose: 0.31 mg/kg/injection, schedule: Q01DX009 (ip), vehicle: saline with Tween-80) was 102 % of control, the T/C (dose: 0.62 mg/kg/injection, schedule: Q01DX009 (ip), vehicle: saline with Tween-80) was 94 % of control and the T/C [13] was 95 % of control. The T/C [14] was 98 % of control, the T/C [15] was 100 % of control and the T/C [16] was 95 % of control.

`CC(C)C(O)(C(=O)OCC1=CC[N+]2(C)CCC(O)C12)C(C)O` (configuration not stated) was tested, and the T/C (dose: 12.5 mg/kg/injection, schedule: Q01DX009 (ip), vehicle: water) was 105 % of control, the T/C (dose: 25.0 mg/kg/injection, schedule: Q01DX009 (ip), vehicle: water) was 107 % of control and the T/C (dose: 50.0 mg/kg/injection, schedule: Q01DX009 (ip), vehicle: water) was 113 % of control. For the same molecule, the T/C (dose: 100.0 mg/kg/injection, schedule: Q01DX009 (ip), vehicle: water) was 109 % of control and the T/C (dose: 200.0 mg/kg/injection, schedule: Q01DX009 (ip), vehicle: water) was 108 % of control.

`COc1ccc2c(c1)CN(S(=O)(=O)c1ccc(C)cc1)CCC2O` (configuration not stated) was tested, and the T/C (dose: 100.0 mg/kg/injection, schedule: Q04DX003 (ip), vehicle: Klucel (hydroxypropylcellulose) (HPC)) was 96 % of control, the T/C (dose: 200.0 mg/kg/injection, schedule: Q04DX003 (ip), vehicle: Klucel (hydroxypropylcellulose) (HPC)) was 93 % of control and the T/C (dose: 400.0 mg/kg/injection, schedule: Q04DX003 (ip), vehicle: Klucel (hydroxypropylcellulose) (HPC)) was 95 % of control.

For `NC(N)=NOCC[C@@H](N)C(=O)O`, the T/C [17] was 105 % of control, the T/C (dose: 100.0 mg/kg/injection, schedule: Q01DX009 (ip), vehicle: saline) was 101 % of control and the T/C (dose: 200.0 mg/kg/injection, schedule: Q01DX009 (ip), vehicle: saline) was 100 % of control. The T/C (dose: 400.0 mg/kg/injection, schedule: Q01DX009 (ip), vehicle: saline) was 99 % of control.

For `[Cl][Pt+2][Cl].[NH-]c1cc(Cl)c(Cl)c(Cl)c1[NH-]`, the T/C [13] was 98 % of control, the T/C [14] was 104 % of control and the T/C [15] was 103 % of control. The T/C [16] was 110 % of control, the T/C (dose: 20.0 mg/kg/injection, schedule: Q01DX009 (ip), vehicle: saline with Tween-80) was 113 % of control and the T/C (dose: 40.0 mg/kg/injection, schedule: Q01DX009 (ip), vehicle: saline with Tween-80) was 117 % of control.

In the case of `CCOC(=O)C(=CN(C(C)C)C(C)C)C(=O)OCC`, the T/C [3] is reported as 117 % of control, the T/C [18] is reported as 108 % of control and the T/C [2] is reported as 111 % of control. The T/C (dose: 100.0 mg/kg/injection, schedule: Q04DX003 (ip), vehicle: saline with Tween-80) was 108 % of control and the T/C (dose: 200.0 mg/kg/injection, schedule: Q04DX003 (ip), vehicle: saline with Tween-80) was 108 % of control.

`COC1CCC2=C(C1)C(=O)CC1c3ccccc3CN21` (configuration not stated) was tested, and the T/C (dose: 12.5 mg/kg/injection, schedule: Q01DX009 (ip), vehicle: saline with Tween-80) was 86 % of control, the T/C (dose: 12.5 mg/kg/injection, schedule: Q04DX003 (ip), vehicle: saline with Tween-80) was 92 % of control and the T/C (dose: 25.0 mg/kg/injection, schedule: Q01DX009 (ip), vehicle: saline with Tween-80) was 93 % of control. The T/C (dose: 25.0 mg/kg/injection, schedule: Q04DX003 (ip), vehicle: saline with Tween-80) was 105 % of control, the T/C [3] was 93 % of control and the T/C [18] was 97 % of control.

`CCC(c1ccc(OC)cc1)C(CC)c1ccc(O)c(CN2CCN(C)CC2)c1` (configuration not stated) was tested, and the T/C [12] was 93 % of control and the T/C [17] was 97 % of control.

For `Brc1cc(Br)cc(-c2nnc(-c3cccc4ccccc34)o2)c1`, the T/C [7] was 94 % of control.

For `CC(=O)C1=CC(=O)NC(=O)C1C(=O)CC(C)C` (configuration not stated), the T/C [9] was 104 % of control, the T/C [10] was 89 % of control and 95 % of control and the T/C [11] was 92 % of control.
